These results are taken from paper PMC4848905, “Fragment Screening of Human Aquaporin 1” (International Journal of Molecular Sciences, 2016).

pKd: −log10 of the molar value. Like-named read-outs stand apart in the source and are kept apart here.

For data set [1], the target named is T1, hAQP1 (Homo sapiens, UniProt P29972).
T1 construct: made in house; host or cells: Spodoptera frugiperda (Sf9) insect cells, baculovirus vector pFB-LIC-Bse
T1 sequence (P29972 1-269): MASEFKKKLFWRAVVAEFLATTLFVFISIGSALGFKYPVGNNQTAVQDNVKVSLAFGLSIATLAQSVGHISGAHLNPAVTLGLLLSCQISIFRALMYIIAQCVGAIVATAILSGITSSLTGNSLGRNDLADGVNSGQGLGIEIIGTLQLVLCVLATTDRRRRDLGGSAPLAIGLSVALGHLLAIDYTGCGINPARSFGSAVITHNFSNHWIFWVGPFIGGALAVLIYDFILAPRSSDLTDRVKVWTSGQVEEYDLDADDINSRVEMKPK
Nature of the data set: Thermal aggregation shift assay (differential static light scattering, DSLS). Format: binding. More on the design: key to ΔTagg (+/−): positive (+) Thermal Shift; ΔTagg (+/−). The conditions noted are these: for ΔTagg (+/−): 1 mM of each fragment; for Tagg: hAQP1 incubated in 1 mM of fragment, hAQP1 alone 54.6 ± 0.1; for dose-dependency of hAQP1 stabilization: increasing concentration of fragment; for Tagg of hAQP1: secondary dose-response assay. The method, then: Temperature-dependent protein aggregation was measured with static light scattering (Stargazer-384, Harbinger Biotech, Markham, ON, Canada) as previously described with modifications. Briefly, purified hAQP1 in PBS pH 7.4 and 1% OG at a concentration of 0.2 mg/mL, incubated with test compound or fragment at the appropriate concentration at room temperature for 15 min, and aliquoted in a clear-bottom 384-well plate (Nunc, Roskilde, Denmark) to a volume of 45 µL in triplicate. The final concentration of DMSO was kept at 5%. Mineral oil (45 µL) covered the sample to prevent evaporation. The sample was heated from 25 to 80 °C at a rate of 1 °C per minute. Incident light was shone on the protein drop from beneath at a 30° angle, and a CCD camera was used to measure the scattered light intensity every 30 s to monitor protein aggregation. Data collated was analyzed using the Bioactive software (Harbinger Biotech). Intensities were plotted as a function of temperature and fitted to the Boltzmann equation by non-linear regression. The point of inflection of the fitted curve defined the temperature of aggregation (Tagg).

Data set [2] has as its target T1, hAQP1. The data set is described as follows: Surface plasmon resonance (SPR) fragment binding to immobilized hAQP1. The conditions noted are these: for SPR binding behaviour: sensorgrams 6.25 to 800 µM. The method, then: Surface Plasmon Resonance measurements were performed using Biacore T-200 (GE Healthcare, Uppsala, Sweden) using the running buffer PBS pH 7.4 supplemented with 1% OG and 5% dimethylsulfoxide (DMSO) at 25 °C. Purified recombinant hAQP1 was directly immobilized onto Biacore Sensor Chip CM5 Research Grade (GE Healthcare, Little Chalfont, UK) using standard amine-coupling chemistry at a flow rate of 5 µL/min. Carboxyl derivatives on CM5 dextran surface were activated with a 10-min 1:1 mixture of 0.2 M N-ethyl-N′-(3-([…])propyl)carbodiimide (EDC) and 50 mM N-hydroxysuccinimide (NHS). The aquaporins were diluted in 10 mM sodium acetate, pH 5.0 and injected across the surface separately. Addition of 0.5 M ethanolamine–HCl at pH 8.5 for 10 min was used to block unreacted activated carboxyl derivates.
The Maybridge Ro3 Diversity Fragment Library (Thermo Fisher Scientific, Waltham, MA, USA) consisting of 1500 fragments was used for screening. These fragments have molecular weight ranging from 82.1 to 295.3 Da, with an experimental guarantee of solubility of ≥1 mM in aqueous phosphate buffer and ≥200 mM in DMSO. They satisfy the “rule of three” criteria, i.e., a molecular weight of ≤300 Da, a cLogP of ≤3.0, ≤3 H-bond acceptors or H-bond donors, ≤3 rotatable bonds, and a polar surface area of ≤60 Å^2. Lyophilized powder of each fragments were pre-dissolved in 100% DMSO prior to the screening campaign. A volume of 10 µL of a 4 mM stock solution of each fragment in 100% DMSO was added to 190 µL of a buffer composed of 1.06 × PBS + 1.06% OG so as to obtain a final fragment concentration of 200 µM in PBS + 1% OG + 5% DMSO in a volume of 200 µL. We note that although a higher screening concentration in the mM range would in principle result in higher protein surface occupancy, allowing the detection of weaker interactions, this may also increase the probability of non-specific binding and/or promiscuously binding colloidal aggregates. In addition, the presence of salt and detergent in the buffer helps to stabilize the hAQP1 and also reduces the chances of non-specific binding. The DMSO solvent has a high refractive index and can be a major cause of false positives and plate-to-plate baseline variations. Therefore, it was important to accurately match its concentration in the sample buffer and the running buffer throughout the screening to minimize data inconsistencies during analysis.
The fragments were injected across a reference channel and hAQP1 channel for 2 min at flow rate of 30 µL/min, and then allowed to dissociate in running buffer for another min. Each fragment was injected in duplicates. DMSO calibration was performed for DMSO correction. Reproducibility was monitored with duplicate injections of each sample. No regeneration step was necessary as all fragments were dissociated. Previously validated positive controls, NSC226080 and NSC624169 (not shown), were included over the course of screening to monitor the surface protein activity.
These fragments, together with the positive controls, were diluted into 25, 50, 100 and 200 µM and tested over the same surfaces under the same conditions. DMSO calibration was performed for DMSO correction. Non-stoichiometric binders (potential fragments that aggregate, precipitate, binding non-specifically, etc.) were excluded. Good binders were assayed in a broader concentration range from 6.25 to 800 µM in 2-fold dilutions under the same conditions.
Raw sensorgrams were corrected for DMSO and double referenced (subtraction of the reference flow cell followed by subtraction of the closest buffer blank), which responses were corrected with a reference flow cell and a blank buffer injections. Corrected sensorgrams were y-axis and x-axis corrected at the point of fragment injection. Responses for the varied concentrations for a fragment were overlaid. […]
(In general: In SPR one partner is held on a chip, and binding of the other changes the refractive index at the surface.)

A further data set concerns human red blood cells. The data set is described as follows: Stopped-flow water permeability assay using human red blood cells. The settings on record: tested at 1 mM. In kind it is cell-based. The method, then: As indicated in the introduction, the binders found should not necessarily show inhibition. Nevertheless, we performed stopped-flow assays to test the effects of the seven fragments in Figure 6 on hAQP1 water permeability using human red blood cells. Based on the values of the rate constants of the scattering increase, none of these fragments produced a significant reduction in water permeability when tested at 1 mM (not shown). Several factors may account for this. […] In addition, hAQP1 in red blood cells is highly glycosylated compared to the hAQP1 purified from insect cells, and this may affect binding affinity. Another factor is the orientation of the protein in the membrane, as in theory only one side of the protein (extracellular) is exposed to the drug in RBC assays, whereas both extramembrane domains are exposed when the protein is solubilized in micelles. Another factor, also noted by Seeliger et al., is the high density of AQP1 at the membrane of red blood cells. […] We are at present unable to explain this behavior or relate it to inhibition of hAQP1.

The target of data set [3] is T1, hAQP1. Nature of the data set: Stopped-flow water permeability assay of hAQP1 proteoliposomes. Format: biochemical. The method, then: Liposomes used in this work were prepared using film rehydration. In this procedure, a thin lipid film of Escherichia coli lipids is formed by drying under a nitrogen stream lipid extract powder (Avanti Polar Lipids Inc., Alabaster, AL, USA) in chloroform. After at least 2 h in a vacuum desiccator, purified aquaporin protein in detergent was added and supplemented with reconstitution buffer (20 mM Tris–HCl pH 8.0) to obtain a protein-to-lipid molar ratio of 1:400. A volume of 1 mL of this reconstitution mixture was incubated for 1 h at room temperature. Uniform sized liposomes were obtained by extrusion through a 400 nm pore-size polycarbonate membrane using an Avestin extruder. […]
The water permeability of proteoliposomes reconstituted with purified aquaporin was determined in a SX20 stopped-flow spectrometer (Applied Photophysics, Leatherhead, UK) with a dead time of 1.1 ms. […] The solution osmolarities were measured using a vapor pressure osmometer (Wescor, Logan, UT, USA). […] The measured average diameter of control liposomes and hAQP1-proteoliposomes were 368 and 262 nm, respectively.
Data was acquired by the Pro-Data SX software and analyzed by Pro-Data Viewer software (Applied Photophysics), where the measured light scattering intensity signals were fitted to an exponential function to obtain the rate constants. […]

[4] abbreviates: 1:1 steady-state binding model, 6.25 to 800 µM in 2-fold dilutions, 25 °C, read-out: SPR (KD).
The mark [5] stands for this setting: inset table of the Figure 5 sensorgram, read-out: KD (inset table).

With `OC1CCCNC1` (stereo not drawn) [AC36708], on hAQP1 [1], the “ΔTagg (+/−)” value is on record as “+” and the Tagg is 62.9 ± 0.4 °C.
For orientation: pKd means the Kd on a negative log10 scale, so that one unit is a factor of ten. `Cc1cc2cc(N)ccc2[nH]1` [AC34875]: the pKd at hAQP1 [2] (setting [4]) is 3.65. Also, the pKd at hAQP1 [2] (setting [5]) was 3.65. Moreover, at hAQP1 [2], the SPR binding behaviour entry is “binding did not achieve saturation equilibrium at higher concentrations”. Moreover, at hAQP1 [1], the “ΔTagg (+/−)” value is “−” and the Tagg amounted to 50.9 °C.
Take `Nc1snnc1-c1ccc(C(F)(F)F)cc1` [MO00656]: on hAQP1 [2] (setting [4]), the pKd is less than 3.10. At hAQP1 [2], the SPR binding behaviour entry is “fast-on, fast-off kinetics”. Moreover, on hAQP1 [1], the “ΔTagg (+/−)” value was “−” and the Tagg was determined as 51.8 °C.
Take `NCCc1coc2ccccc12` [CC40813]: the negative logarithm of the Kd (pKd) on hAQP1 [2] (KD (inset table), inset table of the Figure 5 sensorgram) was 3.87; on hAQP1 [2] (SPR (KD), 1:1 steady-state binding model, 6.25 to 800 µM in 2-fold dilutions, 25 °C), 3.88. At hAQP1 [2], the SPR binding behaviour entry is on record as “binding did not achieve saturation equilibrium at higher concentrations”. The “ΔTagg (+/−)” value on hAQP1 [1] is given as “−”. For the same compound, on hAQP1 [1], the Tagg was found to be 50.3 °C.
Take `NCCNc1cccc2ccccc12` [AC42399]: the pKd at hAQP1 [2] (setting [4]) was 3.26. In addition, on hAQP1 [2], the SPR binding behaviour entry is given as “fast-on, fast-off kinetics”. On hAQP1 [1], the “ΔTagg (+/−)” value is on record as “−” and the Tagg is 48.0 °C.
`NCc1cccc(N2CCCCC2)n1` [CC38113]: the “amplitude of the stopped-flow traces” value with human red blood cells is recorded as “large amplitude reduction in the traces”. Moreover, the pKd at hAQP1 [2] (setting [4]) and on hAQP1 [2] (setting [5]) was 4.21 in each case. Further, at hAQP1 [1], the “ΔTagg (+/−)” value is given as “+”. In addition, the Tagg on hAQP1 [1] came to 63.3 ± 0.1 °C.
`[Cl][Hg][Cl]` [HgCl2, mercuric chloride]: the “average fitted rate constant (k)” value at hAQP1 [3] (300 µM, 23 °C, means ± S.E., n = 6, without inhibitor 109.4 (±1.9)) is 8.56 (±0.03) s^−1. Besides, on hAQP1 [3] (proteoliposomes pre-incubated with 300 µM, without inhibitor Pf = 0.053), the “osmotic water permeability coefficient (Pf)” value amounted to 0.0041 cm/s.
Turning to `Nc1cccc(CN2CCCC2)c1` [CC55714], on hAQP1 [1], the “ΔTagg (+/−)” value is reported as “+” and the Tagg stood at 63.6 ± 0.4 °C.
On to `NCCNCc1ccccc1` [SB01744], for which, on hAQP1 [1], the “ΔTagg (+/−)” value is reported as “+”, the Tagg stood at 58.7 ± 0.2 °C and the “dose-dependency of hAQP1 stabilization” value is recorded as “could not be interpreted due to inconsistencies in the results”.
As for `O=Nc1c(O)ccc2ccccc12` [AC15153], the pKd on hAQP1 [2] (setting [4]) and at hAQP1 [2] (setting [5]) was 3.47 throughout.
For `c1ccc2c(c1)CCNCC2` [MO08607], the pKd at hAQP1 [2] (setting [4]) and at hAQP1 [2] (setting [5]) was 3.02 throughout. The “ΔTagg (+/−)” value at hAQP1 [1] was “+”. For the same compound, the Tagg on hAQP1 [1] was 59.0 ± 0.3 °C. Moreover, the “dose-dependency of hAQP1 stabilization” value at hAQP1 [1] is listed as “can be considered a true binder”. In addition, the results for the “Tagg of hAQP1” value at hAQP1 [1] (50 μM), on hAQP1 [1] (400 µM) and at hAQP1 [1] (2000 µM) were 61.8 ± 0.6 °C, 66.3 ± 0.1 °C and 86.7 ± 7.2 °C, respectively.
Consider `Nc1ccc2c(c1)OCCO2` [SB00353], for which the pKd at hAQP1 [2] (setting [4]) was 3.04. Besides, on hAQP1 [2] (setting [5]), the negative-log Kd (pKd) was 3.04. In addition, on hAQP1 [1], the “ΔTagg (+/−)” value was “−” and the Tagg worked out at 51.1 °C.
With `CNCc1scc2c1OCCO2` [CC47846], on hAQP1 [1], the “ΔTagg (+/−)” value is on record as “+” and the Tagg was 70.0 ± 1.2 °C.
For `OCc1cccc(-c2ccco2)c1` [CC46109], the “amplitude of the stopped-flow traces” value in the data set on human red blood cells is recorded as “large amplitude reduction in the traces”. Further, the pKd at hAQP1 [2] (setting [4]) and on hAQP1 [2] (setting [5]) was 3.01 in each case. Moreover, the “ΔTagg (+/−)” value on hAQP1 [1] was “+”.
`NCc1ccc(-c2ccc(C(F)(F)F)cn2)cc1` [CC53013]: the pKd on hAQP1 [2] (setting [4]) was 2.88. Further, the pKd at hAQP1 [2] (setting [5]) is 2.88. The SPR binding behaviour entry on hAQP1 [2] was “fast-on, fast-off kinetics”. In addition, on hAQP1 [1], the “ΔTagg (+/−)” value is recorded as “−” and the Tagg is 48.6 °C.
